Data set [1] concerns the target T1, Acetylcholinesterase (Homo sapiens, UniProt P22303). As to the kind of experiment: biochemical.
For another data set, the target named is Butyrylcholinesterase (Homo sapiens, UniProt P06276). Nature of the data set: biochemical.
For data set [2], the target named is T1, Acetylcholinesterase.
In another data set the test system is post-operative delirium. As to the kind of experiment: Prospective clinical study for the prevention of post-operative delirium (Confusion Assessment Method). The format is in vivo, patients. The source says:
In order to be able to test the effect of the pharmaceutical forms of the invention on patients, a prospective study was accomplished for the prevention of post-operative delirium at five Austrian orthopedic hospitals (two in Vienna, and one each in Linz, Graz and Krems) and all together 229 patients, who underwent hip replacement and/or combined planned surgical intervention for implantation were part of the study.
Hip/Knee endoprosthesis. The patients of the group were given in the evening following the surgical intervention (day 0) 8 mg galanthamine HCl, then on the days 1 to 4 in each case 4 mg in the morning and at noon and 8 mg in the evening, i.e., 16 mg t.i.d. to the fifth day. […], the dose was reduced to 8 mg b.i.d., starting from that day until the 6th day when no more treatment took place.
For the determination of the effectiveness with the help of the “Confusion Assessment Method” (Lit.14) 155 patients could be consulted. In the group of placebos 7 patients (8, 5%) developed an post-operative delirium, in the galanthamine group only one patient (1, 4%) developed post-operative delirium, which corresponds to a statistically significant difference (p=0, 044).

Data set [3] deals with medicament-induced delirium. The note with it: one patient, WO 00/32185 A; cited from earlier work.

This is an account of results in US20060111341A1, “Use of galanthamine and the derivatives thereof in the production of medicaments” (priority 2003, published 2006).

Like-named read-outs stand apart in the source and are kept apart here.

T1 sequence (P22303 32-614): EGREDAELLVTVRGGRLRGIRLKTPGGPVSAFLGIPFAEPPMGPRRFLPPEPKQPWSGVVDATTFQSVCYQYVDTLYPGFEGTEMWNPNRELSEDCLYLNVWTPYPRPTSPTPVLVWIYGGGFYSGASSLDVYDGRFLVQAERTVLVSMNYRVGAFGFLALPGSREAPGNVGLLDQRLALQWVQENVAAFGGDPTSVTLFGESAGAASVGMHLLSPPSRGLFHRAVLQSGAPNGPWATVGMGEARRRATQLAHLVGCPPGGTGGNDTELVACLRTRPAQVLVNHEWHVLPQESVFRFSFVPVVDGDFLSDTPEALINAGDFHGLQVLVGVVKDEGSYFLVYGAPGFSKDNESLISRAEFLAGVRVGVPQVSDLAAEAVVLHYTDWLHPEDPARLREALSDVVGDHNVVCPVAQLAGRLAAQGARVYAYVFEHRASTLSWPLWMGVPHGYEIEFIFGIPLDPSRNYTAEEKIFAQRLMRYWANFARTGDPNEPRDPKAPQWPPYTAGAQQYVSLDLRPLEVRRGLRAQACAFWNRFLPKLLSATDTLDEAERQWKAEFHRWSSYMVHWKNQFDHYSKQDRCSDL
Butyrylcholinesterase, sequence (P06276 29-602): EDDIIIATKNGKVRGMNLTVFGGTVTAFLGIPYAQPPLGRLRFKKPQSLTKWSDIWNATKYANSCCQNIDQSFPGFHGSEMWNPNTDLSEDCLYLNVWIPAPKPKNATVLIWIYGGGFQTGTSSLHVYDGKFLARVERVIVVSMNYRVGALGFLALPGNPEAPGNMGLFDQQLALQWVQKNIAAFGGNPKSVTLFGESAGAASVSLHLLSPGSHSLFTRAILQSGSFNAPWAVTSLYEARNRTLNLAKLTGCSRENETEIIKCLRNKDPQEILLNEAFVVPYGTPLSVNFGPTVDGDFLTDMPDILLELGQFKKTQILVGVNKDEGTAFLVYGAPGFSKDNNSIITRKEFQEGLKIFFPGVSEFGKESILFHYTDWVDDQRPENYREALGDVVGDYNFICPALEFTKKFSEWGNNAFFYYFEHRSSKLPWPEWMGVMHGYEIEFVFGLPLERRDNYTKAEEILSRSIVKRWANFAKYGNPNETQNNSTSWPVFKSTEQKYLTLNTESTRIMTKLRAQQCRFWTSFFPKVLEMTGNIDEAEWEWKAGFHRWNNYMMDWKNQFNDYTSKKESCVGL

For orientation: IC50 means the concentration at which inhibition is half-maximal. Read a low IC50 as higher potency. For `COc1cc2c(cc1OC)C(=O)C(CCCCN1CC[C@@]34C=C[C@H](O)C[C@@H]3Oc3c(OC)ccc(c34)C1)C2` (some centres unmarked) [Nr 154], the IC50 on Acetylcholinesterase [1] stood at 20 nM; against Butyrylcholinesterase, 800 nM.

As to `CCCN1CC[C@@]23C=C[C@H](O)C[C@@H]2Oc2c(OC)ccc(c23)C1` [Nr 155], the IC50 was found to be 300 nM on Acetylcholinesterase [1] and 1500 nM at Butyrylcholinesterase.

As to `COc1ccc2c(c1)CC(CCCCN1CC[C@@]34C=C[C@H](O)C[C@@H]3Oc3c(OC)ccc(c34)C1)C2=O` (some centres unmarked) [Nr 157], the figures for the IC50 at Acetylcholinesterase [1] and on Butyrylcholinesterase were 22 nM and 800 nM, respectively.

As to `COc1cc2c(cc1OC)C(=O)C(CCCCCN1CC[C@@]34C=C[C@H](O)C[C@@H]3Oc3c(OC)ccc(c34)C1)C2` (some centres unmarked) [Nr 158], the values for the IC50 against Acetylcholinesterase [1] and at Butyrylcholinesterase were 5.2 nM and 240 nM, respectively.

As for `CCOC(=O)NN(CN1CC[C@@]23C=C[C@H](O)C[C@@H]2Oc2c(OC)ccc(c23)C1)C(=O)OCC` [Nr 159], the IC50 on Acetylcholinesterase [1] was 3000 nM; on Butyrylcholinesterase, > 100000 nM.

For `COc1ccc2c3c1O[C@H]1C[C@@H](O)C=C[C@@]31CCN(CN(NC(=O)OC(C)(C)C)C(=O)OC(C)(C)C)C2` [Nr 160], the figures for the IC50 at Acetylcholinesterase [1] and on Butyrylcholinesterase were 3600 nM and 20000 nM, respectively.

On to `COc1ccc2c3c1O[C@H]1C[C@@H](O)C=C[C@@]31CCN(CCCCN1C(=O)c3ccccc3S1(=O)=O)C2` [Nr 161], for which the values for the IC50 against Acetylcholinesterase [1] and against Butyrylcholinesterase were 22 nM and 1500 nM, respectively.

The compound `COc1cc2c(cc1OC)C(=O)C(CCCCN1CC[C@@]34C=C[C@H](O)C[C@@H]3Oc3c(OC)ccc(c34)C1)C2` (some centres unmarked) [Nr 167] had an IC50 on Acetylcholinesterase [2] of 20 nM.

Consider `COc1ccc2c3c1O[C@H]1C[C@@H](OC(=S)Nc4ccccc4)C=C[C@@]31CCN(C)C2` [Nr 179], for which the figures for the IC50 on Acetylcholinesterase [1] and against Butyrylcholinesterase were 51000 nM and 30000 nM, respectively.

As to `COc1ccc2c3c1O[C@H]1C[C@@H](O)C=C[C@@]31CCN(C(=O)Nc1cccc3ccccc13)C2` [Nr 267], the values for the IC50 against Acetylcholinesterase [1] and at Butyrylcholinesterase were 70000 nM and > 100000 nM, respectively.

Regarding `COc1cc(Br)c2c3c1O[C@@H]1C[C@H](O)C=C[C@]31CCN(C(=O)CCN1CCCC1)C2` [Nr 271], the figures for the IC50 against Acetylcholinesterase [1] and on Butyrylcholinesterase were > 100000 nM and 66000 nM, respectively.

In the case of `COc1ccc2c3c1O[C@H]1C[C@@H](O)C=C[C@@]31CCN(C)C2` [galanthamine], in the data set with post-operative delirium (hip/knee endoprosthesis patients, oral galanthamine day 0 to 5, Confusion Assessment Method, 155 patients evaluated, placebo 7 patients), the “patients who developed post-operative delirium (number)” value is recorded as “one”. Besides, the “improvement of the symptoms of acute POD” value in the data set on post-operative delirium (oral administration, patients with limited cognitive ability with acute POD) is “unexpected and large improvement of the symptoms”. The “observed side effects of galanthamine administration” value with post-operative delirium (oral administration, post-operative patients) is given as “very small”. The “patients who developed post-operative delirium (percent)” value with post-operative delirium (po, 0 h) is 1, 4%.

For `CCN(C)C(=O)Oc1cccc([C@H](C)N(C)C)c1` [rivastigmine], the “treatment of delirium after lithium intoxication” value in data set [3] is “successfully treated”.
